Patent US11767520B2, “Compositions and methods for treating lung inflammation” (aTyr Pharma, Inc., priority 2017, dated 2023)

What was measured:
[1] = test system: bleomycin-induced lung fibrosis; experiment: Survival, BLM-induced lung fibrosis mouse model (Example 1, Table E2); format: in vivo, mouse (male C57Bl/6J); settings: for Survival (number of animals surviving to study day): Ninte. 60 mg/kg PO, BLM mice, 12 at start
Experimental: Lung inflammation and fibrosis were induced in male C57Bl/6J mice by oropharyngeal administration of BLM. After the habituation phase mice were randomized based on body weight over the different groups. Under isoflurane anesthesia, 50 μl PBS or BLM was dripped onto the vocal cords facilitating aspiration. Mice were sacrificed at day 21 using a terminal bleed under isoflurane anesthesia.
Daily oral treatments commenced on Day 0, while daily IV treatments commenced on Day 8. Dosing was planned to continue until the day of termination (Day 21), however, due to high mortality in IV treated groups (see results), IV dosing was skipped on Day 19 and Day 20. […] Subsequently, the mice received 8% D20 (Kinemed, Emeryville) drinking water until sacrifice to maintain labeling of newly formed collagen. Body weight was monitored three times a week.
The study commenced with 7 animals in the non-diseased control group and 12 animals in the BLM-induced groups. Survival is show in Table E2 below.

[2] = test system: bleomycin-induced lung fibrosis; experiment: Histological fibrosis (modified Ashcroft) score, BLM mouse model (Example 1); format: in vivo, mouse (male C57Bl/6J); settings: BLM-induced mice
Experimental: The five lung lobes were collected and isolated. Wet weight of the medial and accessory lung lobes was recorded. The lobes were then snap frozen and stored at <−70° C. until use for hydroxyproline analysis. The left lung lobe was inflated and fixed for 48 hours in 4% formaldehyde and embedded in paraffin for histological analysis. The cranial lung lobe was snap frozen and stored at −80° C. until shipment to Kinemed for the determination of new collagen formation.
Sections of the left lung lobe were stained using Masson's Trichrome and were scored in a blinded fashion using a modified Ashcroft score (Hubner et al., BioTechniques. 44:507-511, 514-507, 2008). Hydroxyproline content was determined in the medial and accessory lung lobes using acid hydrolysis followed by a chromogenic assay (QuickZyme Biosciences, Leiden, Netherlands). Newly formed collagen was measured in the cranial lung lobe by Kinemed Inc., Emeryville, USA using the fraction of body water enriched in 2H for normalization.

[3] = test system: bleomycin-induced lung inflammation; experiment: Histological inflammatory cell infiltrate and type II pneumocyte hyperplasia scores, BLM rat model (Example 2); format: in vivo, rat (male Sprague Dawley); settings: BLM-induced rats, Day 22; Nintedanib PO; Test Article = HRS^FC1 1 mg/kg on Days 2, 9 and 16; FIG. 5
Experimental: The five lung lobes were collected and weighed. The right lung lobes were inflated and fixed in 10% neutral buffered formalin and embedded in paraffin for histological analysis. An approximately 50 mg piece of the left lung lobe was snap frozen and stored at −80° C. for potential RNA analysis. The remainder of the lobe was also snap frozen until analyzed for collagen content.
(§1) Sections for histology were stained using picrosirius red and were scored in a blinded fashion (1 score for each of the 4 lobes) by a veterinary pathologist using a modified Ashcroft score (Hubner et al., 2008). Hydroxyproline content was determined in the left lung lobe using a mass spectrometry method.
(§2) Slides were read by a veterinary pathologist and each of the 4 lobes evaluated was assigned 4 scores [Ashcroft for fibrosis (scores range from 0 to 8), perivascular/peribronchiolar inflammatory cell infiltrate (scores range from 0 to 5), interstitial/alveolar inflammatory cell infiltrate (scores range from 0 to 5), type II pneumocyte hyperplasia (scores range from 0 to 5)].

[4] = Body weight, BLM rat model, combination study (Example 3); format: in vivo, rat (male Sprague Dawley); settings: BLM-induced rats; Nintedanib, Pirfenidone or Test Article (HRS^FC1 3 mg/kg IV weekly), alone or in combination, from Day 9
Experimental: (§3) PBS or BLM was administered under isoflurane anesthesia. Excess rats were induced with BLM and used to replace any animals with excessive body weight loss.
(§4) All treatments commenced on Day 9.
(§5) In-life, body weights were measured and clinical observations were conducted daily. On Days 8, 15 and 21, animals were removed from their home cages and placed individually into whole body plethysmography chambers. After a 20-minute acclimatization phase, respiratory parameters were recorded for 10 minutes. Pre-study and on Days 10 and Day 17, whole blood was obtained from the tail vein and processed to serum for measurement of HRS^FC1.

[5] = test system: bleomycin-induced respiratory impairment; experiment: Respiratory measurements by whole body plethysmography, BLM rat model, combination study (Example 3, Table E6); format: in vivo, rat (male Sprague Dawley); design: Tidal Volume: unit not given here; settings: for Expiratory Time / Inspiratory Time / Peak Expiratory Flow / Peak Inspiratory Flow / Tidal Volume / Respiratory Rate / Respiratory Minute Volume: mean; for Respiratory Rate: in breaths/min (unit assumed); for Respiratory Minute Volume: in mL/min (unit assumed)
Experimental: as §3, §4, §5

[6] = test system: bleomycin-induced lung fibrosis; experiment: Histological fibrosis (modified Ashcroft) score, BLM rat model, combination study (Example 3); format: in vivo, rat (male Sprague Dawley); settings: BLM-induced rats; alone or in combination, vs PO plus IV vehicles; data not shown
Experimental: The five lung lobes were collected and weighed. On Day 17, the right accessory lobe was retained and desiccated to obtain dry weight. The remaining right lung lobes were inflated and fixed in 10% neutral buffered formalin and embedded in paraffin for histological analysis. An approximately 50 mg piece of the left lung lobe was snap frozen and stored at −80° C. for potential RNA analysis. The remainder of the lobe was also snap frozen until analyzed for collagen content.
as §1, with “3-4” for “4”
as §2, with “the 3” for “the 4”, “4 score types” for “4 scores”

[7] = Day 8 (prior to any treatments), Ninte. PO + Vehicle IV group

SMILES: COC(=O)c1ccc2c(c1)NC(=O)/C2=C(\Nc1ccc(N(C)C(=O)CN2CCN(C)CC2)cc1)c1ccccc1 [Nintedanib, nintedanib]
- Survival rate ([1]; BLM-induced mice to Day 21, daily PO from Day 0: dexamethasone 0.25 mg/kg, Nintedanib 60 mg/kg): 92%
- Survival (number of animals surviving to study day) ([1]; Day 11): 12
- Survival (number of animals surviving to study day) ([1]; Day 12): 12
- Survival (number of animals surviving to study day) ([1]; Day 13): 12
- Survival (number of animals surviving to study day) ([1]; Day 14): 12
- Survival (number of animals surviving to study day) ([1]; Day 15): 12
- Survival (number of animals surviving to study day) ([1]; Day 16): 12
- Survival (number of animals surviving to study day) ([1]; Day 17): 12
- Survival (number of animals surviving to study day) ([1]; Day 18): 12
- Survival (number of animals surviving to study day) ([1]; Day 19): 12
- Survival (number of animals surviving to study day) ([1]; Day 20): 12
- Survival (number of animals surviving to study day) ([1]; Day 21): 11
- Group mean histological (Ashcroft) score, significance vs respective vehicle ([2]; left lung lobe, Day 21, dexamethasone/Nintedanib PO, Test Article = HisRS1^N8 IV): did not result in a significant decrease
- Overall effects in this experiment ([2]; Nintedanib 60 mg/kg/dose from day of BLM instillation): no significant effects
- Interstitial/alveolar inflammatory cell infiltrate score [3]: no effect on interstitial inflammatory cell infiltrate
- Body weight curves vs respective controls [4]: None of the groups treated with Nintedanib, Pirfenidone or Test Article alone or in combination had body weight curves that significantly differed
- BLM-induced alterations in respiratory parameters ([5]; BLM-induced rats, Day 15 and Day 21, Nintedanib, Pirfenidone or Test Article (HRS^FC1)): did not significantly impact
- Expiratory Time [5, 7]: 0.151 s
- Inspiratory Time [5, 7]: 0.115 s
- Peak Expiratory Flow [5, 7]: 18.4
- Peak Inspiratory Flow [5, 7]: 17.2
- Tidal Volume [5, 7]: 1.19
- Respiratory Rate [5, 7]: 249.0
- Respiratory Minute Volume [5, 7]: 304.5
- Expiratory Time ([5]; Day 15, Ninte. PO + Vehicle IV): 0.205 s
- Inspiratory Time ([5]; Day 15, Ninte. PO + Vehicle IV): 0.122 s
- Peak Expiratory Flow ([5]; Day 15, Ninte. PO + Vehicle IV): 16.5
- Peak Inspiratory Flow ([5]; Day 15, Ninte. PO + Vehicle IV): 19.0
- Tidal Volume ([5]; Day 15, Ninte. PO + Vehicle IV): 1.35
- Respiratory Rate ([5]; Day 15, Ninte. PO + Vehicle IV): 223.4
- Respiratory Minute Volume ([5]; Day 15, Ninte. PO + Vehicle IV): 309.5
- Expiratory Time ([5]; Day 21, Ninte. PO + Vehicle IV): 0.231 s
- Inspiratory Time ([5]; Day 21, Ninte. PO + Vehicle IV): 0.127 s
- Peak Expiratory Flow ([5]; Day 21, Ninte. PO + Vehicle IV): 13.9
- Peak Inspiratory Flow ([5]; Day 21, Ninte. PO + Vehicle IV): 18.1
- Tidal Volume ([5]; Day 21, Ninte. PO + Vehicle IV): 1.44
- Respiratory Rate ([5]; Day 21, Ninte. PO + Vehicle IV): 203.7
- Respiratory Minute Volume ([5]; Day 21, Ninte. PO + Vehicle IV): 286.0
- Interstitial inflammatory cell infiltrate (as printed in the Ashcroft score paragraph) [6]: no significant effect
